Measured values: patent US11899025B2, “Pharmaceutical composition for preventing or treating neurodegenerative diseases comprising COX2 acetylating agent as active ingredient” (KYUNGPOOK NATIONAL UNIVERSITY INDUSTRY-ACADEMIC COOPERATION …, priority 2018, dated 2024)

How the values were obtained:
COX2 = biological target: T1, COX2 (Homo sapiens, UniProt P35354); assay: LC-MS/MS identification of the COX2 acetylation site; assay type: biochemical; details: FIG. 8d
T1 sequence (P35354 18-604): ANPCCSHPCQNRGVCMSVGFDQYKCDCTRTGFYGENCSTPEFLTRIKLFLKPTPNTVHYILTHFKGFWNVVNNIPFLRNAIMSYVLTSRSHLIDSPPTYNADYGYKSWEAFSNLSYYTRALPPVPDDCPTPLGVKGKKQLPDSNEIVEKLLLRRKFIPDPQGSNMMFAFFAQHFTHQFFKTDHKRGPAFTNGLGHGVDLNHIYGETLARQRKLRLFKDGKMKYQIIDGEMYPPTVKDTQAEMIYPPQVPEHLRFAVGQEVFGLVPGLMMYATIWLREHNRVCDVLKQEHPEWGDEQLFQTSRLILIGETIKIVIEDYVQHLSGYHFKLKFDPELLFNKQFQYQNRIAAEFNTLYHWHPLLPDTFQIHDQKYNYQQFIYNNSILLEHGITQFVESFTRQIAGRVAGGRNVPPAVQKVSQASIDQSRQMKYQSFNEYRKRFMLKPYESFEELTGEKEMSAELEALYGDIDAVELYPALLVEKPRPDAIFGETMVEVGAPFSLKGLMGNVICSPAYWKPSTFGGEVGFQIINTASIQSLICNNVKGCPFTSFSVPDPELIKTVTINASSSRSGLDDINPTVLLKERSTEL
Description: To confirm the acetylation site of COX2, the COX2 enzyme was precipitated with trichroloacetic acid (Merck) and dried. The dried extract was resuspended in 10 μL of 5M urea solution, and 0.1M ammonium bicarbonate buffer was incubated at 37° C. with 1 μg trypsin (Promega) for 16 hours. Then, the sample was treated with 1M DTT (GE Healthcare) at room temperature for 1 hour and then alkylated with 1M iodoacetamide (Sigma) for 1 hour. Protein samples were loaded onto a ZORBAX 300SB-C18 column for sequencing. Peptides were identified with BioTools 3.2 SR5 (Bruker Daltonics).
In addition, it was confirmed that serine 565 (S565) against the COX2 peptide 560-[…]-575 was acetylated in the presence of N-acetyl sphingosine (FIG. 8d).

NP-C mice = assay: Niemann-Pick (NP-C) animal model: immunofluorescence, Rota-rod, Beam test; assay type: in vivo, mouse; details: 1 month-old NPC mice, 5 mg/kg daily for 4 weeks, subcutaneous
From the text: It has been approved for mouse experiments by the Kyungpook National University Institutional Animal Care and Use Committee (IACUC). A transgenic mouse line overexpressing APPswe (hAPP695swe) or PS1 (presenilin-1M146V) based on C57BL/6 mice (Charles River, UK) was used. [Hereinafter, APP mouse: mouse overexpressing APPswe, PS1 mouse: mouse overexpressing presenilin-1M146V; GlaxoSmithKline]. As an Alzheimer's (AD) animal model, SphK1 tg (SphK1 gene overexpressing mouse) was crossed with APP mice and APP/PS1 mice to prepare APP/PS1/SphK1 tg mice. Niemanpick (NP-C) animal model, Balb/C (Orient, Wild type), NPC mutant mouse lacking NPC1 gene (Provided by Riken, Japan, NP-C mice; less weight than normal mice of the same age, and severe motor function loss from 4 to 6 weeks of age, limb tremors and seizures appear, and lifespan is approximately 9 to 10 weeks. Is) was used. As an animal model for amyotrophic lateral sclerosis (ALS), a transgenic mouse (FUS) line overexpressing RUS R521C based on C57BL/6 mice (Charles River, UK) was used.
After fixing the cerebral and hippocampus of the mouse, anti-20G10 (mouse, 1:1000) against amyloid-β (Aβ) 42 and anti-G30 (rabbit, 1:1000) against Aβ 40, anti-MAP2 (chicken, 1:2000), anti-Synaptophysin (mouse, 1:100), anti-Synapsin1 (rabbit, 1:500), anti-PSD95 (mouse, 1:100), anti-Iba-1 (rabbit, 1:500), Anti-GFAP (rabbit, 1:500) was cultured together. The site was analyzed using a laser scanning confocal microscope or Olympus BX51 microscope equipped with Fluoview SV1000 imaging software (Olympus FV1000, Japan). Metamorph software (Molecular Devices) was used to quantify the percentage of the area of the stained area relative to the area of the total tissue.
To check the motor ability of each experimental group mice, a Rota-rod, Beam test, Tail suspension test, and Hanging wired test were performed. […] The endurance time of the experimental animal was measured in seconds, and the average value was recorded. […] In the Beam test, the time taken to move to the end point after placing the mouse at the start point of a 12 mm wide bar was measured. […]

APP/PS1 neurons = assay: neuroinflammatory resolution factor (SPMs) secretion in APP/PS1 neurons after COX2 acetylating agent treatment; assay type: cell-based, mouse; details: 10 nM; FIG. 8b
Description: A commercially available ELISA kit (Biosource) was used, and the hemispheres of mice were homogenized and placed in a buffer containing 0.02M guanidine to prepare a sample for Aβ ELISA. In order to measure the neuroinflammatory resolution factor, conditioned media (CM) was prepared after culturing neurons from mouse cerebrum. Thereafter, according to the manufacturer's manual, ELISA for Aβ and SPM was performed.
In order to measure the neuroinflammatory resolution factor, after culturing neurons from mouse cerebrum, CM was prepared by treatment with 10 nM N-acetyl sphingosine 1 phosphate (Toronto Research chemicals, C262710) and N-acetyl sphingosine (Sigma, 01912). For COX2 acetylation analysis, neurons were cultured from mouse cerebrum and then treated with 2 uCi [^14C]N-acetyl sphingosine (ARC, ARC1024). In addition, for in vivo experiments, 7-month-old APP/PS1 mice were injected with 5 mg/kg N-acetyl sphingosine (Sigma, 01912), 1 mg/kg FTY720 and 3 uM S1P daily for 4 weeks via intraperitoneal injection. 1 month-old NPC mice were injected with 5 mg/kg N-acetyl sphingosine (Sigma, 01912) and 2-month-old FUS mice with 30 mg/kg N-acetyl sphingosine (Sigma, 01912) daily for 4 weeks via subcutaneous injection.
First, in order to confirm whether the selected compounds promote the secretion of neuroinflammatory resolution factor in neurons, after treatment with N-acetyl sphingosine 1 phosphate or N-acetyl sphingosine in APP/PS1 neurons, the expression levels of neuroinflammatory resolution factor were confirmed. As a result, it was confirmed that the expression levels of LxA4 and RvE1 in neurons of APP/PS1 mice were recovered when treated with N-acetyl sphingosine 1 phosphate or N-acetyl sphingosine (FIG. 8b).

CCCCCCCCCCCCC/C=C/[C@@H](O)[C@H](CO)NC(C)=O [N-acetyl sphingosine]
acetylation of serine 565 (S565) of COX2 peptide 560-GCPFTSFSVPDPELIK-575 (COX2): acetylated
microglia (Iba1) in brain cortex vs NP-C mice (NP-C mice; FIG. 10a): remarkable decrease
astrocytes (GFAP) in brain cortex vs NP-C mice (NP-C mice; FIG. 10b): remarkable decrease
exercise capacity (Rota-rod, Beam test) vs NP-C mice (NP-C mice; FIGS. 10c and d): improved
expression level of LxA4 in neurons of APP/PS1 mice (APP/PS1 neurons): recovered
expression level of RvE1 in neurons of APP/PS1 mice (APP/PS1 neurons): recovered
